From PubChem BioAssay AID396

Target: 14-3-3 protein beta/alpha (Homo sapiens) (UniProt P31946)
Experiment: YWHAB binders by thermal stabilisation, biophysical, DSF, SYPRO orange, recombinant human protein (AID 396)
Conditions: at 10 µM, protein 2.3 µM, buffer 10 mM HEPES, pH 7.5, NaCl 150 mM, active compounds read high

14-3-3 protein beta/alpha (Homo sapiens), sequence (P31946 whole entry, looked up): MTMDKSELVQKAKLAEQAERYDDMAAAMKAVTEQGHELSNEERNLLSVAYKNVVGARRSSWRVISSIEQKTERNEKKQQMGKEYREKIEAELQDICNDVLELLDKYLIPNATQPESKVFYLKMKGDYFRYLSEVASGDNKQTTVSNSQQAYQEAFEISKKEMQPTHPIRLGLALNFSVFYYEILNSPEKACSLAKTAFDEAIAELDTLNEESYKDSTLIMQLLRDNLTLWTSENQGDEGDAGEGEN

Tm shift: 3.13 Celsius
SMILES: O=c1c(O)c(-c2ccc(O)c(O)c2)oc2cc(O)cc(O)c12
